29 compounds from patent US8436043B2 (Takeda Pharmaceutical Company Limited, priority 2008, dated 2013) can be followed below.

T1 sequence (P47871 26-477): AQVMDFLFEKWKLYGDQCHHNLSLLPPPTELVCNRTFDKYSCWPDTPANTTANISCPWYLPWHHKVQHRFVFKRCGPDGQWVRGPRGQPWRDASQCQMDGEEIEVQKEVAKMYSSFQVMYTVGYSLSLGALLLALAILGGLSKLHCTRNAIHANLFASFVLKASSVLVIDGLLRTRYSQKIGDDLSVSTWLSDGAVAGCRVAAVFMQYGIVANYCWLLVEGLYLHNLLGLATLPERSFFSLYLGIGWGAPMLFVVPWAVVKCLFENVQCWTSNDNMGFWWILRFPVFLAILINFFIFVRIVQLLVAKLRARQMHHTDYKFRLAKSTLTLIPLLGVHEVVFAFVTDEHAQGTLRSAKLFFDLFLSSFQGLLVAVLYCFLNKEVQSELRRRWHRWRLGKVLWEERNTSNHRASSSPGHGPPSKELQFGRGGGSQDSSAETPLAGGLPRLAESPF

The first test concerns the target T1, human glucagon receptor (Homo sapiens, UniProt P47871).
T1 construct: made in house; host or cells: FreeStyle CHO cells, transient transfection with pMSRαneo/hGCGR; membrane fraction (35,000 rpm pellet)
Briefly: Glucagon binding inhibitory activity ([125I]-glucagon binding to glucagon receptor membrane protein). The following applies: human glucagon receptor membrane protein, [125I]-glucagon, 90 min room temperature. The procedure, abridged:
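Receptor source was a membrane fraction of transiently transfected CHO cells bearing human receptor; 90 min room-temperature binding, filtration harvest, scintillation counting.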
As for `Cc1c(C(Nc2ccc(C(=O)NCCC(=O)O)cc2)C2CCCCC2)oc2ccccc12` (stereo not drawn) [Example A17, 3-{[(4-{[cyclohexyl(3-methyl-1-benzofuran-2-yl)methyl]amino}phenyl)carbonyl]amino}propanoic acid], the IC50 was found to be 230 nM.

Staying with this test, now noted: test compound 10 μM; 0.4% DMSO = 0%, non-labeled glucagon 1 μM = 100%.
Regarding `Cc1c(C(Nc2ccc(C(=O)N(C)CCC(=O)O)cc2)C2CCCCC2)oc2ccc(F)cc12` (stereo not drawn) [Example A46, 3-{[(4-{[cyclohexyl(5-fluoro-3-methyl-1-benzofuran-2-yl)methyl]amino}phenyl)carbonyl](methyl)amino}propanoic acid], the “inhibitory rate (%) at 10 μM” value is given as 78%.

The test is the same for the next values; noted with them: test compound 10 μM; 0.4% DMSO = 0%, non-labeled glucagon 1 μM = 100%; read-out: inhibitory rate (%) at 10 μM.
As for `O=C(O)CCNC(=O)c1ccc(NC(c2cn(-c3ccc(OC(F)(F)F)cc3)nc2OCc2ccccc2)C2CCCCC2)cc1` (stereo not drawn) [Example 60, 3-{[(4-{[{3-(benzyloxy)-1-[4-(trifluoromethoxy)phenyl]-1H-pyrazol-4-yl}(cyclohexyl)methyl]amino}phenyl)carbonyl]amino}propanoic acid], the inhibition at 10 µM worked out at 71%.

On to `CCC(Nc1ccc(C(=O)N(C)CCC(=O)O)cc1)c1oc2ccc(OCc3ccccc3)cc2c1C` (stereo not drawn) [Example A179, 3-[{[4-({1-[5-(benzyloxy)-3-methyl-1-benzofuran-2-yl]propyl}amino)phenyl]carbonyl}(methyl)amino]propanoic acid], for which the inhibition at 10 µM is 84%.

On to `COc1ccc(-c2ccc3oc(C(Nc4ccc(C(=O)N(C)CCC(=O)O)cc4)C(C)C)c(C)c3c2)cn1` (stereo not drawn) [Example A182, 3-[{[4-({1-[5-(6-methoxypyridin-3-yl)-3-methyl-1-benzofuran-2-yl]-2-methylpropyl}amino)phenyl]carbonyl}(methyl)amino]propanoic acid], for which the inhibition at 10 µM was 95%.

Consider `Cc1c(C(Nc2ccc(C(=O)NCCC(=O)O)cc2)C2CCCCC2)oc2ccccc12` (stereo not drawn) [Example A17, 3-{[(4-{[cyclohexyl(3-methyl-1-benzofuran-2-yl)methyl]amino}phenyl)carbonyl]amino}propanoic acid], for which the inhibition at 10 µM is 72%.

Regarding `COCc1nn(-c2ccc(OC)cc2)cc1C(Nc1ccc(C(=O)NCCC(=O)O)cc1)C1CCCCC1` (stereo not drawn) [Example 35, 3-({[4-({cyclohexyl[3-(methoxymethyl)-1-(4-methoxyphenyl)-1H-pyrazol-4-yl]methyl}amino)phenyl]carbonyl}amino)propanoic acid], the inhibition at 10 µM amounted to 75%.

In the case of `COc1ccc2oc(C(Nc3ccc(C(=O)N(C)CCC(=O)O)cc3)C3CCCCC3)c(C)c2c1` (stereo not drawn) [Example A27, 3-{[(4-{[cyclohexyl(5-methoxy-3-methyl-1-benzofuran-2-yl)methyl]amino}phenyl)carbonyl](methyl)amino}propanoic acid], the inhibition at 10 µM is 80%.

Turning to `Cc1c(C(Nc2ccc(C(=O)NCCC(=O)O)cc2)C2CCCCC2)oc2ccc(OCc3ccccc3)cc12` (stereo not drawn) [Example A158, 3-({[4-({[5-(benzyloxy)-3-methyl-1-benzofuran-2-yl](cyclohexyl)methyl}amino)phenyl]carbonyl}amino)propanoic acid], the inhibition at 10 µM came to 79%.

For the compound `Cc1c(C(Nc2ccc(C(=O)N(C)CCC(=O)O)cc2)C2CCCCC2)oc2ccc(OCc3ccccn3)cc12` (stereo not drawn) [Example A155, 3-[{[4-({cyclohexyl[3-methyl-5-(pyridin-2-ylmethoxy)-1-benzofuran-2-yl]methyl}amino)phenyl]carbonyl}(methyl)amino]propanoic acid], the inhibition at 10 µM worked out at 81%.

Turning to `CSCCOc1ccc2oc(C(Nc3ccc(C(=O)N(C)CCC(=O)O)cc3)C3CCCCC3)c(C)c2c1` (stereo not drawn) [Example A147, 3-[({4-[(cyclohexyl{3-methyl-5-[2-(methylthio)ethoxy]-1-benzofuran-2-yl}methyl)amino]phenyl}carbonyl)(methyl)amino]propanoic acid], the inhibition at 10 µM came out at 99%.

Take `COc1ccc2nc(C(Nc3ccc(C(=O)NCCC(=O)O)cc3)C3CCCCC3)n(C)c2c1` (stereo not drawn) [Example A116, 3-{[(4-{[cyclohexyl(6-methoxy-1-methyl-1H-benzimidazol-2-yl)methyl]amino}phenyl)carbonyl]amino}propanoic acid]: the inhibition at 10 µM was 58%.

In the case of `O=C(O)CCNC(=O)c1ccc(NC(c2cc3ccccc3s2)C2CCCCC2)cc1` (stereo not drawn) [Example A6, 3-{[(4-{[1-benzothiophen-2-yl(cyclohexyl)methyl]amino}phenyl)carbonyl]amino}propanoic acid], the inhibition at 10 µM came to 87%.

With `COCc1nn(-c2cc(C(F)(F)F)ccn2)cc1C(Nc1ccc(C(=O)N(C)CCC(=O)O)cc1)C1CCCCC1` (stereo not drawn) [Example 89, 3-[({4-[(cyclohexyl{3-(methoxymethyl)-1-[4-(trifluoromethyl)pyridin-2-yl]-1H-pyrazol-4-yl}methyl)amino]phenyl}carbonyl)(methyl)amino]propanoic acid], the inhibition at 10 µM amounted to 62%.

Consider `COc1ccc2cc(C(Nc3ccc(C(=O)N(C)CCC(=O)O)cc3)C3CCCCC3)oc2c1` (stereo not drawn) [Example A28, 3-{[(4-{[cyclohexyl(6-methoxy-1-benzofuran-2-yl)methyl]amino}phenyl)carbonyl](methyl)amino}propanoic acid], for which the inhibition at 10 µM turned out to be 62%.

As for `COc1ccc(-n2cc(C(CC(C)C)Nc3ccc(C(=O)NCCC(=O)O)cc3)c(C(C)C)n2)cc1` (stereo not drawn) [Example 54, 3-({[4-({1-[1-(4-methoxyphenyl)-3-(1-methylethyl)-1H-pyrazol-4-yl]-3-methylbutyl}amino)phenyl]carbonyl}amino)propanoic acid], the inhibition at 10 µM was found to be 62%.

Regarding `COc1cc(OC)cc(-n2cc(C(Nc3ccc(C(=O)NCCC(=O)O)cc3)C3CCCCC3)c(C)n2)c1` (stereo not drawn) [Example 82, 3-({[4-({cyclohexyl[1-(3,5-dimethoxyphenyl)-3-methyl-1H-pyrazol-4-yl]methyl}amino)phenyl}carbonyl]amino)propanoic acid], the inhibition at 10 µM worked out at 78%.

In the case of `COc1ccc(-n2cc(C(Nc3ccc(C(=O)NCCC(=O)O)cc3)C3CCCCC3)c(C)n2)cc1` (stereo not drawn) [Example 23, 3-({[4-({cyclohexyl[1-(4-methoxyphenyl)-3-methyl-1H-pyrazol-4-yl]methyl}amino)phenyl]carbonyl}amino)propanoic acid], the inhibition at 10 µM is 71%.

`Cc1nn(-c2ccc(C(F)(F)F)cn2)cc1C(Nc1ccc(C(=O)NCCC(=O)O)cc1)C1CCCCC1` (stereo not drawn) [Example 1, 3-[({4-[(Cyclohexyl{3-methyl-1-[5-(trifluormethyl)pyridin-2-yl]-1H-pyrazol-4-yl}methyl)amino]phenyl}carbonyl)amino]propanoic acid]: the inhibition at 10 µM was found to be 73%.

Take `Cc1c(C(CC(C)C)Nc2ccc(C(=O)NCCC(=O)O)cc2)sc2ccccc12` (stereo not drawn) [Example A33, 3-{[(4-{[3-methyl-1-(3-methyl-1-benzothiophen-2-yl)butyl]amino}phenyl)carbonyl]amino}propanoic acid]: the inhibition at 10 µM is 76%.

For `Cc1c(C(CC(C)C)Nc2ccc(C(=O)N(C)CCC(=O)O)cn2)sc2ccccc12` (stereo not drawn) [Example A38, 3-{methyl[(6-{[3-methyl-1-(3-methyl-1-benzothiophen-2-yl)butyl]amino}pyridin-3-yl)carbonyl]amino}propanoic acid], the inhibition at 10 µM was determined as 56%.

`COc1ccc(-n2cc(C(Nc3ccc(C(=O)NCCC(=O)O)cc3)C3CCCCC3)c(CN3CCOCC3)n2)cc1` (stereo not drawn) [Example 68, 3-({[4-({cyclohexyl[1-(4-methoxyphenyl)-3-(morpholin-4-ylmethyl)-1H-pyrazol-4-yl]methyl}amino)phenyl]carbonyl}amino)propanoic acid]: the inhibition at 10 µM is 66%.

Turning to `Cc1sc2ccccc2c1C(Nc1ccc(C(=O)NCCC(=O)O)cc1)C1CCCCC1` (stereo not drawn) [Example A8, 3-{[(4-{[cyclohexyl(2-methyl-1-benzothiophen-3-yl)methyl]amino}phenyl)carbonyl]amino}propanoic acid], the inhibition at 10 µM was 78%.

As to `Cc1nn(-c2ccc(Cl)cc2)cc1C(Nc1ccc(C(=O)N(C)CCC(=O)O)cc1)C1CCCCC1` (stereo not drawn) [Example 20, 3-[{[4-({[1-(4-chlorophenyl)-3-methyl-1H-pyrazol-4-yl](cyclohexyl)methyl}amino)phenyl]carbonyl}(methyl)amino]-propanoic acid], the inhibition at 10 µM was 79%.

With `Cc1c(C(Nc2ccc(C(=O)N(C)CCC(=O)O)cc2)C2CCCCC2)oc2ccc(OCc3ccnc(F)c3)cc12` (stereo not drawn) [Example A168, 3-[({4-[(cyclohexyl{5-[(2-fluoropyridin-4-yl)methoxy]-3-methyl-1-benzofuran-2-yl}methyl)amino]phenyl}carbonyl)(methyl)amino]propanoic acid], the inhibition at 10 µM amounted to 90%.

With `Cc1c(C(Nc2ccc(C(=O)N(C)CCC(=O)O)cc2)C2CCCCC2)oc2ccc(Oc3ccccn3)cc12` (stereo not drawn) [Example A200, 3-[{[4-({cyclohexyl[3-methyl-5-(pyridin-2-yloxy)-1-benzofuran-2-yl]methyl}amino)phenyl]carbonyl}(methyl)amino]propanoic acid], the inhibition at 10 µM turned out to be 89%.

Consider `Cc1c(C(Nc2ccc(C(=O)N(C)CCC(=O)O)cc2)C2CCCCC2)oc2ccc(F)cc12` (stereo not drawn) [Example A37, 3-{[(4-{[cyclohexyl(5-fluoro-3-methyl-1-benzofuran-2-yl)methyl]amino}phenyl)carbonyl](methyl)amino}propanoic acid], for which the inhibition at 10 µM amounted to 78%.

On to `Cc1c(C(Nc2ccc(C(=O)N(C)CCC(=O)O)cc2)C2CCCCC2)oc2ccc(Br)nc12` (stereo not drawn) [Example A126, 3-{[(4-{[(5-bromo-3-methylfuro[3,2-b]pyridin-2-yl)(cyclohexyl)methyl]amino}phenyl)carbonyl](methyl)amino}-propanoic acid], for which the inhibition at 10 µM stood at 68%.

`Cc1c(C(Nc2ccc(C(=O)N(C)CCC(=O)O)cc2)C2CCCC2)oc2c(F)cc(F)cc12` (stereo not drawn) [Example A208, 3-{[(4-{[cyclopentyl(5,7-difluoro-3-methyl-1-benzofuran-2-yl)methyl]amino}phenyl)carbonyl](methyl)amino}propanoic acid]: the inhibition at 10 µM is 83%.

For `COCCOCc1c(C(Nc2ccc(C(=O)N(C)CCC(=O)O)cc2)C2CCCCC2)oc2ccc(F)cc12` (stereo not drawn) [Example A133, 3-[({4-[(cyclohexyl{5-fluoro-3-[(2-methoxyethoxy)methyl]-1-benzofuran-2-yl}methyl)amino]phenyl}carbonyl)(methyl)amino]propanoic acid], the inhibition at 10 µM was determined as 80%.
